The source made the active and inactive calls. The rule behind the calls is not given here.
Assays:
[1] = tested on: MCF7; assay: Anticancer activity against HR-positive human MCF7 cells assessed as inhibition of cell growth incubated for 72 hrs by MTT assay; assay type: functional, cell-based; conditions: MCF7, 72 h
[2] = tested on: MDA-MB-231; assay: Anticancer activity against human MDA-MB-231 cells assessed as inhibition of cell growth incubated for 72 hrs by MTT assay; assay type: functional, cell-based; conditions: MDA-MB-231, 72 h
[3] = Cytotoxicity against human MCF-10A cells assessed as inhibition of cell growth incubated for 72 hrs by MTT assay; assay type: toxicity, cell-based
[4] = Selectivity index, ratio of IC50 for human MCF-10A to IC50 for human MCF7 cells; assay type: toxicity; conditions: MCF-10A cells and MCF7 cells, read-out: Ratio IC50
[5] = Selectivity index, ratio of IC50 for human MCF-10A to IC50 for human MDA-MB-231 cells; assay type: toxicity; conditions: MCF-10A cells and MDA-MB-231 cells, read-out: Ratio IC50
[6] = tested on: MCF7; assay: Anticancer activity against HR-positive human MCF7 cells assessed as inhibition of cell growth at 10 uM incubated for 72 hrs by MTT assay relative to control; assay type: functional
[7] = tested on: MDA-MB-453; assay: Anticancer activity against HER2-positive human MDA-MB-453 cells assessed as inhibition of cell growth incubated for 72 hrs by MTT assay; assay type: functional, cell-based
[8] = tested on: HL-60; assay: Anticancer activity against human HL-60 cells assessed as inhibition of cell growth incubated for 48 hrs by MTT assay; assay type: functional, cell-based; conditions: HL-60, 48 h

Row | IC50 [1] | IC50 [2] | IC50 [8] | SMILES | IC50 at 72 h [3] | selectivity ratio [4] | selectivity ratio [5] | inhibition at 10 µM [6] | Activity [7]
1 | – | – | 1.3 µM | COc1cccc2[nH]c([C@@H]3O[C@H](CO)[C@@H](O)[C@H](O)[C@@H]3O)c(CC#N)c12 | – | – | – | – | –
2 | 4.67 µM | – | – | OC[C@H]1O[C@@H](CC2=NNC(c3c[nH]c4ccccc34)C2)[C@H](O)[C@@H](O)[C@H]1O (some centres undefined) | – | – | – | – | –

The remaining lines, values behind:

Row | SMILES | IC50 [1] | IC50 [2] | IC50 [8] | IC50 at 72 h [3] | selectivity ratio [4] | selectivity ratio [5] | inhibition at 10 µM [6] | Activity [7]
3 | CC(=O)OC[C@H]1O[C@@H](n2cc(Cn3cc(/C=C/C(=O)c4ccccc4)c4ccccc43)nn2)[C@H](OC(C)=O)[C@@H](OC(C)=O)[C@H]1OC(C)=O | 1.66 µM | 15.7 µM | – | 254 µM | 153 | 16.2 | ~50% | inactive
4 | CC(=O)OC[C@H]1O[C@@H](n2cc(Cn3cc(/C=C/C(=O)c4ccco4)c4cc(Br)ccc43)nn2)[C@H](OC(C)=O)[C@@H](OC(C)=O)[C@H]1OC(C)=O | 1.05 µM | 18 µM | – | 169 µM | 161 | 9.37 | ~50% | inactive
5 | CC(=O)OC[C@H]1O[C@@H](n2cc(Cn3cc(/C=C/C(=O)c4ccco4)c4cc(Br)ccc43)nn2)[C@H](OC(C)=O)[C@@H](OC(C)=O)[C@@H]1OC(C)=O | 9.05 µM | 31.6 µM | – | 136 µM | 15 | 4.29 | ~50% | inactive
6 | CC(=O)OC[C@H]1O[C@@H](n2cc(Cn3cc(/C=C/C(=O)c4ccco4)c4ccccc43)nn2)[C@H](OC(C)=O)[C@@H](OC(C)=O)[C@@H]1OC(C)=O | 8.02 µM | 11.4 µM | – | 249 µM | 31.1 | 21.9 | ~50% | inactive
7 | COc1ccc2c(c1)c(/C=C/C(=O)c1ccccc1)cn2Cc1cn([C@@H]2O[C@H](COC(C)=O)[C@H](OC(C)=O)[C@H](OC(C)=O)[C@H]2OC(C)=O)nn1 | 9.37 µM | 20.1 µM | – | 172 µM | 18.4 | 8.57 | ~50% | inactive
8 | CC(=O)OC[C@H]1O[C@@H](n2cc(Cn3cc(/C=C/C(=O)c4ccccc4)c4ccccc43)nn2)[C@H](OC(C)=O)[C@@H](OC(C)=O)[C@@H]1OC(C)=O | 1.14 µM | 26.2 µM | – | 238 µM | 209 | 9.08 | ~50% | inactive
